Laboratory results from ChEMBL document CHEMBL1134252, “Reaction of Lys-Tyr-Lys triad mimics with benzylpenicillin: insight into the role of Tyr150 in class C beta-lactamase” (Bioorg Med Chem Lett, 2001).

Key:
[1] = pKa1 value determined; format: physicochemical; conditions: read-out: pKa1
[2] = pKa2 value determined; format: physicochemical; conditions: read-out: pKa2
[3] = Time taken by compound for 10% decrease in benzyl-penicillin concentration; format: ADME

Row | SMILES | pKa [1] | pKa [2] | Time [3] [h]
1 | Cc1cc(CN)c(O)c(CN)c1 | 7 | 9.7 | 1.38
2 | Cc1ccc(O)c(CN)c1 | 8.7 | – | 8.25
3 | Cc1cc([C@@H](N)CO)c(O)c([C@@H](N)CO)c1 | 6.3 | 9 | 3.6
4 | COc1c(CN)cc(C)cc1CN | 8.5 | 10.2 | 44.9
5 | Cc1cc(CNCCO)c(O)c(CNCCO)c1 | 6.4 | 9.7 | 2.45
